# Target: T1, mouse Fpr3 (Fpr-rs1) (Mus musculus, UniProt O08790)
# T1 construct: expressed in transfected cells; host or cells: HEK293T (DSMZ # ACC-635), transient transfection with jetPEI
# T1 sequence (O08790 1-351): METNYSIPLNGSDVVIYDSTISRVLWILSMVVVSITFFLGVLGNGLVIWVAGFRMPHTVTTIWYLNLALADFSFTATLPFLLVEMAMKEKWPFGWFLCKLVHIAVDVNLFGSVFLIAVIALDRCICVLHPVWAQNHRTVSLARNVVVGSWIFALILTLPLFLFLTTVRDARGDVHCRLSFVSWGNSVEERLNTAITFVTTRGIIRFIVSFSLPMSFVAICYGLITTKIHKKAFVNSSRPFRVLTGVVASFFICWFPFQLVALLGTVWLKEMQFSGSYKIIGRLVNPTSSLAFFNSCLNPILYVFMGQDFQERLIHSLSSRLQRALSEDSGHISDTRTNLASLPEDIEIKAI
# Experiment: Heterologous expression / high-throughput Ca2+ imaging agonist screen and sequence selectivity of Fpr3 (Fig. 1a, 2c-e, 2g, 2i)
# Assay type: cell-based
# Settings: mean of n = 3 experiments in triplicate (n = 5 for f-MKKFRW), Fpr3 + Gα16 HEK293T, Fluo-4/AM, FLIPR, buffer C1 pH 7.2, mock 0.059-0.060
# Experimental: An Fpr3 gene subcloned from genomic DNA of C57BL/6J mice into pcDNA3.1 (Invitrogen) was used in heterologous experiments[21],[80]. HEK293T (DSMZ # ACC-635) cells were seeded at 20–30% confluence on poly-D-lysine-coated (10 µg/ml in PBS) black 96-well µCLEAR-Plates (Greiner Bio-One). Cells were transfected 24 h later using jetPEI™ (Polyplus-transfection SA) according to the manufacturer’s protocol for 96-well transfections. For Ca^2+ imaging experiments, 0.125 µg of DNA plasmid encoding Fpr3 were cotransfected with equal amounts of a plasmid encoding Gα16, a promiscuous G protein α-subunit. Ca^2+ signals to agonist stimulation were recorded 48 h post transfection using the Ca^2+ indicator dye Fluo-4/AM (Molecular Probes) and a fluorescence imaging plate reader (FLIPR) system (Molecular Devices). Cotransfection of a plasmid encoding Gα16 with an empty vector used to subclone Fpr3 gave no agonist-evoked Ca^2+ responses.
# We used custom-made peptides with a length of 6–21 amino acids to screen for agonists. Sequences of fMet peptides were designed according to motifs present at the N-termini of 15,125 specific bacterial proteins as annotated in UniProt. Peptides were chemically synthesised, purified, and verified by mass spectroscopy (MALDI-TOF) by commercial suppliers. Purity of all peptides was >95%. Source, sequence and purity of each peptide are listed in Supplementary Data 1. Lyophilised peptides were routinely dissolved in the Ca^2+ imaging assay buffer C1 (130 mM NaCl, 10 mM HEPES, 5 mM KCl, 2 mM CaCl2, 5 mM glucose, pH 7.2) as 0.2–1 mM stock solutions and kept in small aliquots at −20 °C until use. […] The sequences of these peptides exist in proteins from the following bacterial strains[21]: Psychromonas ingrahamii that belongs to a marine ice water microbial community, Desulfotomaculum reducens that is found in deep freshwater lakes, and Pseudomonas grimontii, a plant pathogen. As mice are unlikely to encounter these strains in their natural habitat, these findings are probably not of biological relevance.
Substance,"Ca2+ response, mean (3 µM)","Ca2+ response, mean (30 µM)"
"f-MKNFKG [synthesized fMet peptide, bacterial signal peptide fragment]",0.065 ∆F/F,0.052 ∆F/F
f-MLKIIL [synthesized fMet peptide],0.057 ∆F/F,0.057 ∆F/F
f-MVMKFK [synthesized fMet peptide],0.053 ∆F/F,0.050 ∆F/F
f-MLFKYS [synthesized fMet peptide],0.054 ∆F/F,0.048 ∆F/F
f-MVPISI [synthesized fMet peptide],0.048 ∆F/F,0.044 ∆F/F
f-MPKLNR [synthesized fMet peptide],0.048 ∆F/F,0.033 ∆F/F
f-MKTSIR [synthesized fMet peptide],0.055 ∆F/F,0.049 ∆F/F
f-MAQDIISTI [synthesized fMet peptide],0.079 ∆F/F,0.075 ∆F/F
f-MNPITL [synthesized fMet peptide],0.053 ∆F/F,0.062 ∆F/F
f-MPSTFF [synthesized fMet peptide],0.063 ∆F/F,0.065 ∆F/F
f-MAMKKL [synthesized fMet peptide],0.058 ∆F/F,0.059 ∆F/F
f-MTNKIS [synthesized fMet peptide],0.052 ∆F/F,0.049 ∆F/F
f-MEFVAKLFK [synthesized fMet peptide],0.071 ∆F/F,0.062 ∆F/F
f-MKKISKFLP [synthesized fMet peptide],0.055 ∆F/F,0.072 ∆F/F
f-MNIFTT [synthesized fMet peptide],0.059 ∆F/F,0.065 ∆F/F
f-MLFKYL [synthesized fMet peptide],0.053 ∆F/F,0.056 ∆F/F
f-MKKNLV [synthesized fMet peptide],0.052 ∆F/F,0.053 ∆F/F
f-MMKMEG [synthesized fMet peptide],0.048 ∆F/F,0.040 ∆F/F
f-MKKFNI [synthesized fMet peptide],0.053 ∆F/F,0.044 ∆F/F
f-MTNMRK [synthesized fMet peptide],0.089 ∆F/F,0.060 ∆F/F
f-MTHQTH [synthesized fMet peptide],0.064 ∆F/F,0.077 ∆F/F
f-MKKTLSLKN [synthesized fMet peptide],0.068 ∆F/F,0.058 ∆F/F
f-MINKKI [synthesized fMet peptide],0.058 ∆F/F,0.045 ∆F/F
f-MKKFYS [synthesized fMet peptide],0.058 ∆F/F,0.056 ∆F/F
f-MPQLDT [synthesized fMet peptide],0.060 ∆F/F,0.058 ∆F/F
f-MKKYKRLLL [synthesized fMet peptide],0.074 ∆F/F,0.065 ∆F/F
f-MKFCTA [synthesized fMet peptide],0.034 ∆F/F,0.080 ∆F/F
f-MKKHRW [synthesized fMet peptide],0.061 ∆F/F,0.054 ∆F/F
f-MEFVAK [synthesized fMet peptide],0.051 ∆F/F,0.076 ∆F/F
f-MKKIML [synthesized fMet peptide],0.050 ∆F/F,0.055 ∆F/F

# Reference: paper PMC6814738, “Bacterial MgrB peptide activates chemoreceptor Fpr3 in mouse accessory olfactory system and drives avoidance behaviour” (Nature Communications, 2019)
